Where a name gives a salt, the structure may show the parent alone. Calls of active or inactive are those of the source.
Experiments:
[1] = target: Dual specificity testis-specific protein kinase 1 (Homo sapiens, UniProt Q15569)
Activin receptor type-1 = target: T1, Activin receptor type-1 (Homo sapiens, UniProt Q04771)
T1 sequence (Q04771 whole entry): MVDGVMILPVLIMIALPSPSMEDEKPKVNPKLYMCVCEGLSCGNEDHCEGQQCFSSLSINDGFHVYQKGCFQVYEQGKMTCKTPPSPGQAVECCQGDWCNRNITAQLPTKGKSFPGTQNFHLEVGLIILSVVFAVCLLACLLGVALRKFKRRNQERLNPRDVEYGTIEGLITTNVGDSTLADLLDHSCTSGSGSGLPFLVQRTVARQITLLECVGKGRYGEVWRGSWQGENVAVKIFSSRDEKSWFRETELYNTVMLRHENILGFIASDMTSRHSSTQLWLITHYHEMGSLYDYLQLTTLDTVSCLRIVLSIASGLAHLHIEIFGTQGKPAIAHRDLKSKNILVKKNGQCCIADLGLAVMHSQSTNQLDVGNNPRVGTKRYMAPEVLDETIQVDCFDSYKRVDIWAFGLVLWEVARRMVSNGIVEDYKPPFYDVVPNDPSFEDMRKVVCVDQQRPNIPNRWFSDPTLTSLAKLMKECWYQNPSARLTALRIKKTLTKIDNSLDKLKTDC

[2] = target: Tyrosine-protein kinase JAK1 (Homo sapiens, UniProt P23458)
[3] = target: T2, Peroxisomal acyl-coenzyme A oxidase 3 (Homo sapiens, UniProt O15254)
T2 sequence (O15254 whole entry): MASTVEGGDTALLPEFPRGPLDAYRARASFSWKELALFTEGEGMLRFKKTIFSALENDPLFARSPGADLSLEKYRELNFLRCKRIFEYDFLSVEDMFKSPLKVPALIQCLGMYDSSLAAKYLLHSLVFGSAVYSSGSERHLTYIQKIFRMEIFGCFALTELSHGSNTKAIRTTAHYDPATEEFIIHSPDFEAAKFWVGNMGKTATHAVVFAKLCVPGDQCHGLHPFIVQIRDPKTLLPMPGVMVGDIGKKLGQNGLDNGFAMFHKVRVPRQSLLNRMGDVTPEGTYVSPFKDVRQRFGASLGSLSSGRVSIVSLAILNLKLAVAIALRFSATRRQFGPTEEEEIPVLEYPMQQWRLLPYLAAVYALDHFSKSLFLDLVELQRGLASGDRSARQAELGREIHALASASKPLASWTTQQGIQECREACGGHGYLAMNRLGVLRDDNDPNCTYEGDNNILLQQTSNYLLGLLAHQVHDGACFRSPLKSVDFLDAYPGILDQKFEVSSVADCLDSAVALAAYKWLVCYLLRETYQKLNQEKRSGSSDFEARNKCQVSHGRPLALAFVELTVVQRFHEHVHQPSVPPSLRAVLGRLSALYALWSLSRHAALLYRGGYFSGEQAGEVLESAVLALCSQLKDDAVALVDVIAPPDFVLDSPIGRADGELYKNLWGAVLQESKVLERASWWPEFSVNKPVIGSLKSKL

Activated CDC42 kinase 1 = Activated CDC42 kinase 1 (Homo sapiens, UniProt Q07912)
[4] = target: T3, Eukaryotic translation initiation factor 5B (Homo sapiens, UniProt O60841)
T3 sequence (O60841 whole entry): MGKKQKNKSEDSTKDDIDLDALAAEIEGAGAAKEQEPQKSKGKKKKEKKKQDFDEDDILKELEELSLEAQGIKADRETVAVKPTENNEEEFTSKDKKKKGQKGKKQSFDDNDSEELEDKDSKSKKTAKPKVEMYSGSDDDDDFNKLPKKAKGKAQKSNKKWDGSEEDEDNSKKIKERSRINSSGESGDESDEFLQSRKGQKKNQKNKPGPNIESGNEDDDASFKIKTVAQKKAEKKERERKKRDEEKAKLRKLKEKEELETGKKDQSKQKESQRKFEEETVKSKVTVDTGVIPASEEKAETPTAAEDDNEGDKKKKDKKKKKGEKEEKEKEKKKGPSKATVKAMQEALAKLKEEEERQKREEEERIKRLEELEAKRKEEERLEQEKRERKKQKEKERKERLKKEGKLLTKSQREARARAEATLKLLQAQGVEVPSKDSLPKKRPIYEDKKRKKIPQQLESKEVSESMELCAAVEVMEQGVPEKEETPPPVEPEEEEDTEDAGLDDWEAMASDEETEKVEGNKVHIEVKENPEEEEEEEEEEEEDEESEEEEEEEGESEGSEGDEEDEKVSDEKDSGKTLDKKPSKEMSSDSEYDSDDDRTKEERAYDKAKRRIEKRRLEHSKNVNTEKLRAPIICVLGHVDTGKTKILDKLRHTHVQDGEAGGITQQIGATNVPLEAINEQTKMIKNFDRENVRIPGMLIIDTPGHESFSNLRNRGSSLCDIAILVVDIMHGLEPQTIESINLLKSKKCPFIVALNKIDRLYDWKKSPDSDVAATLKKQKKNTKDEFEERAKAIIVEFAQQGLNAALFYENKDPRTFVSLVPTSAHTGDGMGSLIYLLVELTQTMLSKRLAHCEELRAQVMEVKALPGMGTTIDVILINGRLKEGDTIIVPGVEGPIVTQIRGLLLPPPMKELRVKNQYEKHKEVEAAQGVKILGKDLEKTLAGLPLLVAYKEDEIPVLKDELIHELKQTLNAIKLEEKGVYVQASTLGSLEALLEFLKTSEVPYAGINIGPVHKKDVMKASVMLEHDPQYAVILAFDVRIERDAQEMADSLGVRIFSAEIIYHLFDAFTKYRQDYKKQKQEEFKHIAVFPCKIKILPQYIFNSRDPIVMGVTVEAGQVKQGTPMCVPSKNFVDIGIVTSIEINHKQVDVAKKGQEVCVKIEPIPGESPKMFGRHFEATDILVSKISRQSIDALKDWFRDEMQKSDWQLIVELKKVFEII

[5] = target: RAC-alpha serine/threonine-protein kinase (Homo sapiens, UniProt P31749)
[6] = target: Casein kinase I isoform epsilon (Homo sapiens, UniProt P49674)
Note: in the data inactive means no Kd found up to 30 µM.

Chain of Dual specificity testis-specific protein kinase 1 (Q15569 whole entry): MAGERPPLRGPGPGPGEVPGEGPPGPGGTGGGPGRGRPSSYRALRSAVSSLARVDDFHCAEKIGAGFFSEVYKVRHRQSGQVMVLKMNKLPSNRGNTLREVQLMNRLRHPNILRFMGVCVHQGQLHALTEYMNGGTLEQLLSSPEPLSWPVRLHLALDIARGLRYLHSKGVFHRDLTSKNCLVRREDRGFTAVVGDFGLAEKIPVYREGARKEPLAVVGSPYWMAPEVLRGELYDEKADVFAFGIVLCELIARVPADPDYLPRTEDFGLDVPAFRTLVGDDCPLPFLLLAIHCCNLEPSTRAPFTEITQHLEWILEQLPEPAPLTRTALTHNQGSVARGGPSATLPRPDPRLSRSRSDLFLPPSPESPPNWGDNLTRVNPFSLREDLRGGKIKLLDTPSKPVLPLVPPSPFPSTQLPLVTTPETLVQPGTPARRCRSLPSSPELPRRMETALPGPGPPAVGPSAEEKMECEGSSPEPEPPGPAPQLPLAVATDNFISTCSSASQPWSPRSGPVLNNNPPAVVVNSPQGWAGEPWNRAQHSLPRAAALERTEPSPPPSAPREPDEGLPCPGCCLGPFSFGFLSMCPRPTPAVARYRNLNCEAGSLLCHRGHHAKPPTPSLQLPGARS
Chain of Casein kinase I isoform epsilon (P49674 whole entry, canonical isoform): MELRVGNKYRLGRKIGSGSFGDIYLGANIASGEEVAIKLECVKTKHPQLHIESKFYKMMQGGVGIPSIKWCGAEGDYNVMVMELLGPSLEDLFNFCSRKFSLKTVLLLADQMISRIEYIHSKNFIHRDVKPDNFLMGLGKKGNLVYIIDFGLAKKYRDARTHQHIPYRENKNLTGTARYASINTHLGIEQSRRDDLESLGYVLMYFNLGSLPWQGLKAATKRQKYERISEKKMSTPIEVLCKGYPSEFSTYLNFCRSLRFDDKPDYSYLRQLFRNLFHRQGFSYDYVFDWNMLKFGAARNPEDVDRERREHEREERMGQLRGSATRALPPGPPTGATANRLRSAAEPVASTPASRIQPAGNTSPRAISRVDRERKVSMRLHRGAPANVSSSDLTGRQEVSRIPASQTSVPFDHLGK
Chain of RAC-alpha serine/threonine-protein kinase (P31749 whole entry, canonical isoform): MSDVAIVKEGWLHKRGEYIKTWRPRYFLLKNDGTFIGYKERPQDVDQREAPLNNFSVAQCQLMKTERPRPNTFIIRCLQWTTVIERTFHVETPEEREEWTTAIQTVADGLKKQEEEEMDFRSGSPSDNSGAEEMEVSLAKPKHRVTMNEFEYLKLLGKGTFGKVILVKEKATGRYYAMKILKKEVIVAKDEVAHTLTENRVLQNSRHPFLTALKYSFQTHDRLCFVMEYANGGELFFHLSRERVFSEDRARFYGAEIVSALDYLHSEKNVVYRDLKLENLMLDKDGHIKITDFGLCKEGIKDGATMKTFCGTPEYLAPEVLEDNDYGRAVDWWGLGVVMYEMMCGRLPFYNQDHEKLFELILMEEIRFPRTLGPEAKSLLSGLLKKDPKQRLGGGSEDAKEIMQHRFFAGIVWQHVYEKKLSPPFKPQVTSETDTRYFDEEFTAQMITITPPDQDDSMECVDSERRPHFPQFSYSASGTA
Chain of Activated CDC42 kinase 1 (Q07912 whole entry): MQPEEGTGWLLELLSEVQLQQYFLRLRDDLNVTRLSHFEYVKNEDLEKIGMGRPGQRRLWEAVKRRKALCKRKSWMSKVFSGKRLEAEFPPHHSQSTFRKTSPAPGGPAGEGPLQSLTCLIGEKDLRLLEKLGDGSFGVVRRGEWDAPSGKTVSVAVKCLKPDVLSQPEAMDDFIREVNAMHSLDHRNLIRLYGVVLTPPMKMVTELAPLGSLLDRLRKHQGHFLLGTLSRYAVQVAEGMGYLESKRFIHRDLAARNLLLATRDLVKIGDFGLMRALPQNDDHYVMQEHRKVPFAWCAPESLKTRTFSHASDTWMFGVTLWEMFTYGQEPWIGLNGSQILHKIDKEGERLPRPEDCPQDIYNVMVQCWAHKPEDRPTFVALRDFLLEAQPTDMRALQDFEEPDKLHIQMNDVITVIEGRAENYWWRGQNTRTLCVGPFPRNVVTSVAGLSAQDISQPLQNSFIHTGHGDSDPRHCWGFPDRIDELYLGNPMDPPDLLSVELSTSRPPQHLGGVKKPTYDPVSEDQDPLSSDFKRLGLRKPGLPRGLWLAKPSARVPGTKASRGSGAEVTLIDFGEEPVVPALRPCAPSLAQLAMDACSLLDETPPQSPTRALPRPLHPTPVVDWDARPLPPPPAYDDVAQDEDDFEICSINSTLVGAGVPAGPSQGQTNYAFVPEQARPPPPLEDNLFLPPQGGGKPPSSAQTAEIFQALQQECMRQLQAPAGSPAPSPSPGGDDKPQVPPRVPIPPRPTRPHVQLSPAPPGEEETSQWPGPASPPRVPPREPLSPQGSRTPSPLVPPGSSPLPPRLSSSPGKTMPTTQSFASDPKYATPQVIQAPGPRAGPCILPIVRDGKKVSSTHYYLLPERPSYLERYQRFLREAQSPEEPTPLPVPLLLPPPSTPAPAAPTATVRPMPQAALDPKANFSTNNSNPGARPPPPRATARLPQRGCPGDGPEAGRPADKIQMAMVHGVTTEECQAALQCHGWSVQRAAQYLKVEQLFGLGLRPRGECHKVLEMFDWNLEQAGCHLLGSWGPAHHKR
Chain of Tyrosine-protein kinase JAK1 (P23458 whole entry): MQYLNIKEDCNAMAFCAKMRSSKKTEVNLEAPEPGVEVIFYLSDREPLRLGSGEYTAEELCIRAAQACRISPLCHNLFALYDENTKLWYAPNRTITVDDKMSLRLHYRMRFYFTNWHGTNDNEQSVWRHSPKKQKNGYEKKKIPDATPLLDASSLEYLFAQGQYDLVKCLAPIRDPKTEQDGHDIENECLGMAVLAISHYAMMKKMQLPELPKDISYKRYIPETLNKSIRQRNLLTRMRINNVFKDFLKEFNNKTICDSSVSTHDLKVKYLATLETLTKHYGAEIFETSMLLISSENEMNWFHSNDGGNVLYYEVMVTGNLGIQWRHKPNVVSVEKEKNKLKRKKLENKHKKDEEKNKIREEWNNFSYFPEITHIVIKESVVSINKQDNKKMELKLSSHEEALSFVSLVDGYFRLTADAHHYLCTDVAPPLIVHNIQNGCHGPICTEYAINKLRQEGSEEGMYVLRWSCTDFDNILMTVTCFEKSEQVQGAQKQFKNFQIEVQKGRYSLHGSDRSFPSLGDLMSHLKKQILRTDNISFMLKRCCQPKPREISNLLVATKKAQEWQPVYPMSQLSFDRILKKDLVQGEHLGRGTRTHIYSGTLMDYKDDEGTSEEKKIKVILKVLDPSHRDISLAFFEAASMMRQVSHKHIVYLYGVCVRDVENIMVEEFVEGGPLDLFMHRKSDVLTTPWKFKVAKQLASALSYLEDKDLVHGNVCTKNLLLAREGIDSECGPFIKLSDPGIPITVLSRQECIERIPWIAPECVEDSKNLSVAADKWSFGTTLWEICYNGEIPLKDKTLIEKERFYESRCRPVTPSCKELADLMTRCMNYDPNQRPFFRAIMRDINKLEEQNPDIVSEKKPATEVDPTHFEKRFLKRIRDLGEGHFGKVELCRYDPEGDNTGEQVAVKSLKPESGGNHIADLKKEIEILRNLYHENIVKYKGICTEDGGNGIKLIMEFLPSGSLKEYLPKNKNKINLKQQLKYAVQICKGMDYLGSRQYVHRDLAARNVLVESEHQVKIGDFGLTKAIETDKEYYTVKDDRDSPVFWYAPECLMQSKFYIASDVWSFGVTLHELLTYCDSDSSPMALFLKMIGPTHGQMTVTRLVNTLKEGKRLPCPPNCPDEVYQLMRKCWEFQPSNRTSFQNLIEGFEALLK

| Compound | Kd [1] | Kd (Activin receptor type-1) | Kd [2] | Kd [3] | Kd (Activated CDC42 kinase 1) | Kd [4] | Kd [5] | Kd [6] |
| --- | --- | --- | --- | --- | --- | --- | --- | --- |
| COc1c(OCCCN2CCOCC2)ccc2c1N=C(NC(=O)c1cnc(N)nc1)N1CCN=C21 [COPANLISIB] | > 30 µM (inactive) | > 30 µM (inactive) | > 30 µM (inactive) | > 30 µM (inactive) | > 30 µM (inactive) | > 30 µM (inactive) | > 30 µM (inactive) | > 30 µM (inactive) |
| COCC(=O)NC/C=C/c1ccc2ncnc(Nc3ccc(Oc4ccc(C)nc4)c(C)c3)c2c1 [CP-724714] | > 30 µM (inactive) | > 30 µM (inactive) | > 30 µM (inactive) | > 30 µM (inactive) | > 30 µM (inactive) | > 30 µM (inactive) | > 30 µM (inactive) | > 30 µM (inactive) |
| CCS(=O)(=O)N1CCN(c2ccc(Nc3ncc(C(N)=O)c(NC4CC4)n3)cc2)CC1 [Cerdulatinib Hydrochloride] | > 30 µM (inactive) | > 30 µM (inactive) | 0.078 µM (active) | > 30 µM (inactive) | > 30 µM (inactive) | > 30 µM (inactive) | > 30 µM (inactive) | > 30 µM (inactive) |
| Cc1nc2cc(-n3ncc(C(=O)c4cc5ccccc5[nH]4)c3N)ccc2[nH]1 [FGFR INHIBITOR DEBIO 1347] | > 30 µM (inactive) | > 30 µM (inactive) | > 30 µM (inactive) | > 30 µM (inactive) | > 30 µM (inactive) | > 30 µM (inactive) | > 30 µM (inactive) | > 30 µM (inactive) |
| COc1ccc(S(=O)(=O)N(C(C)=O)c2ccccc2/C=C/c2cc[n+]([O-])cc2)cc1 [HMN-214] | > 30 µM (inactive) | > 30 µM (inactive) | > 30 µM (inactive) | > 30 µM (inactive) | > 30 µM (inactive) | > 30 µM (inactive) | > 30 µM (inactive) | > 30 µM (inactive) |
| O=C(Nc1cc(C(F)(F)F)cc(C(F)(F)F)c1)c1cc(Cl)ccc1O [IMD-0354] | > 30 µM (inactive) | > 30 µM (inactive) | > 30 µM (inactive) | > 30 µM (inactive) | > 30 µM (inactive) | > 30 µM (inactive) | > 30 µM (inactive) | > 30 µM (inactive) |
| CNC(=O)c1cccc2cc(Oc3ccnc4cc(OCC5(N)CC5)c(OC)cc34)ccc12 [LUCITANIB] | > 30 µM (inactive) | > 30 µM (inactive) | > 30 µM (inactive) | > 30 µM (inactive) | > 30 µM (inactive) | > 30 µM (inactive) | > 30 µM (inactive) | > 30 µM (inactive) |
| Cn1cc(-c2cnc3ccc4ccc(CS(=O)(=O)NCc5ccccn5)cc4c(=O)c3c2)cn1 [MK-8033] | > 30 µM (inactive) | > 30 µM (inactive) | > 30 µM (inactive) | > 30 µM (inactive) | > 30 µM (inactive) | > 30 µM (inactive) | > 30 µM (inactive) | > 30 µM (inactive) |
| COc1ncc(-c2ccc3nccc(-c4ccnnc4)c3c2)cc1NS(=O)(=O)c1ccc(F)cc1F [OMIPALISIB] | > 30 µM (inactive) | > 30 µM (inactive) | > 30 µM (inactive) | > 30 µM (inactive) | > 30 µM (inactive) | > 30 µM (inactive) | > 30 µM (inactive) | > 30 µM (inactive) |
| CCCCCCCCCCCCCCCCCCOP(=O)([O-])OC1CC[N+](C)(C)CC1 [PERIFOSINE] | > 30 µM (inactive) | > 30 µM (inactive) | > 30 µM (inactive) | > 30 µM (inactive) | > 30 µM (inactive) | > 30 µM (inactive) | > 30 µM (inactive) | > 30 µM (inactive) |
| Cc1nc(Nc2n[nH]c3c2CN(C(=O)N[C@H](CN(C)C)c2ccccc2)C3(C)C)c2sccc2n1 [PF-03758309] | > 30 µM (inactive) | > 30 µM (inactive) | > 30 µM (inactive) | > 30 µM (inactive) | > 30 µM (inactive) | > 30 µM (inactive) | > 30 µM (inactive) | > 30 µM (inactive) |
| Cc1cnc(NC(=O)Nc2cc(Br)c(C)cc2OC[C@@H]2CNCCO2)cn1 [RABUSERTIB] | > 30 µM (inactive) | > 30 µM (inactive) | > 30 µM (inactive) | > 30 µM (inactive) | > 30 µM (inactive) | > 30 µM (inactive) | > 30 µM (inactive) | > 30 µM (inactive) |
| CNC(=O)c1cc(Oc2ccc(NC(=O)Nc3cc(C(C)(C)C)nn3-c3ccc4ncccc4c3)c(F)c2)ccn1 [REBASTINIB] | > 30 µM (inactive) | > 30 µM (inactive) | > 30 µM (inactive) | 16.1 µM | > 30 µM (inactive) | > 30 µM (inactive) | > 30 µM (inactive) | > 30 µM (inactive) |
| N#CC1(c2ccc(NC(=O)c3cccnc3NCc3ccncc3)cc2)CCCC1 [RIVOCERANIB] | > 30 µM (inactive) | > 30 µM (inactive) | > 30 µM (inactive) | > 30 µM (inactive) | > 30 µM (inactive) | > 30 µM (inactive) | > 30 µM (inactive) | > 30 µM (inactive) |
| O=c1[nH]ccc2cc(OC3CCNCC3)ccc12 [SAR-407899 FREE BASE] | > 30 µM (inactive) | > 30 µM (inactive) | > 30 µM (inactive) | > 30 µM (inactive) | > 30 µM (inactive) | > 30 µM (inactive) | > 30 µM (inactive) | > 30 µM (inactive) |
| Cn1cc(-c2cnn3c(N)c(Br)c([C@@H]4CCCNC4)nc23)cn1 [SCH-900776] | > 30 µM (inactive) | > 30 µM (inactive) | > 30 µM (inactive) | > 30 µM (inactive) | > 30 µM (inactive) | > 30 µM (inactive) | > 30 µM (inactive) | > 30 µM (inactive) |
| CO[C@H]1C[C@@H]2CC[C@@H](C)[C@@](O)(O2)C(=O)C(=O)N2CCCC[C@H]2C(=O)O[C@H]([C@H](C)C[C@@H]2CC[C@@H](O)[C@H](OC)C2)CC(=O)[C@H](C)/C=C(\C)[C@@H](O)[C@@H](OC)C(=O)[C@H](C)C[C@H](C)/C=C/C=C/C=C/1C [SIROLIMUS] | > 30 µM (inactive) | > 30 µM (inactive) | > 30 µM (inactive) | > 30 µM (inactive) | > 30 µM (inactive) | > 30 µM (inactive) | > 30 µM (inactive) | > 30 µM (inactive) |
